Results as given in US20110059526A1, “REPROGRAMMING A CELL BY INDUCING A PLURIPOTENT GENE THROUGH USE OF AN HDAC MODULATOR” (NUPOTENTIAL, INC., priority 2008, published 2011).
Where a name gives a salt, the structure may show the parent alone.

Tests used:
[1] = test system: Oct-4 gene expression, BJF cells; assay: Small molecules, Oct-4 gene expression by qRT-PCR (Table III), BJF; type: cell-based, human
Protocol: (§1) Cell culture. Human dermal fibroblasts were purchased from Cell Applications (San Diego, Calif.), and were maintained at 37° C. in 95% humidity and 5% CO2 in Fibroblast growth medium (Cell Applications, San Diego, Calif.).
(§2) Quantitative RT-PCR. Expression of Oct-4 was determined by real-time RT-PCR. Briefly, total RNA was prepared from cultures using Trizol Reagent (Life Technologies, Gaithersburg, Md.) and RNeasy Mini kit (Qiagen; Valencia, Calif.) with DNase I digestion according to manufacturer's protocol. Total RNA (1 μg) from each sample was subjected to oligo(dT)-primed reverse transcription (Invitrogen; Carlsbad, Calif.). Real-time PCR reactions will be performed with PCR master mix on a 7300 real-time PCR system (Applied Biosystems; Foster City, Calif.). For each sample, 1 μl of diluted cDNA (1:10) will be added as template in PCR reactions. The expression level of Cot-4 was normalized to glyceraldehyde 3-phosphate-dehydrogenase (GAPD).
Table III provides the effects of small molecule inhibitors on Oct-4 gene expression in human somatic cells. mRNA levels were determined by real time qRT-PCR and normalized with GAPDH. The abbreviations are as follows: HDACi (histone deacetylase inhibitor DNMTi (DNA methyltransferase inhibitor); SIRTi (sirtuin, Class III HDAC inhibitor); LdeMi (lysine demethylase inhibitor); SIRT1a (sirtuin 1 activator); TSAi (trichostatin A inhibitor); HDMi/LSD1i (histone demethylase inhibitor/Lysine demethylase 1 inhibitor).

[2] = test system: Oct-4 gene expression, adult human dermal fibroblasts (HDFa); assay: Small molecules, Oct-4 gene expression by qRT-PCR (Table III), HDFa; type: cell-based
Protocol: as §1, §2
The abbreviations are as follows: HDACi (histone deacetylase inhibitor DNMTi (DNA methyltransferase inhibitor); SIRTi (sirtuin, Class III HDAC inhibitor); LdeMi (lysine demethylase inhibitor); SIRT1a (sirtuin 1 activator); TSAi (trichostatin A inhibitor); HDMi/LSD1i (histone demethylase inhibitor/Lysine demethylase 1 inhibitor).

[3] = test system: Oct-4 gene expression, HLFa; assay: Small molecules, Oct-4 gene expression by qRT-PCR (Table III), HLFa; type: cell-based, human; conditions: dose 500 uM, Rx Time 5
[4] = test system: Sox-2 protein, fetal human dermal fibroblasts (HDFf); assay: Immunohistochemistry of Sox-2 protein in shRNA-infected cells; type: cell-based; conditions: versus uninfected control
[5] = test system: Oct-4 protein, fetal human dermal fibroblasts (HDFf); assay: Immunohistochemistry of Oct-4 protein in shRNA-infected cells; type: cell-based; conditions: versus uninfected control
Protocol: Cell culture. Fetal human dermal fibroblasts were purchased from Cell Applications (San Diego, Calif.), and were maintained at 37° C. in 95% humidity and 5% CO2 in Fibroblast growth medium (Cell Applications, San Diego, Calif.).
Lentiviral Infection. Fetal human dermal fibroblasts were infected with one of the following compositions: (1) shRNA lentivirus directed to DNMT1; (2) shRNA lentivirus directed toward HDAC7; (3) shRNA lentivirus directed toward DNMT1 and HDAC7; and (4) shRNA lentivirus directed toward HDAC7a and HDAC11. The shRNA construct was obtained from Dharmacon. The shRNA construct directed toward HDAC7a had the following sequence:
(§3) The human dermal fibroblasts were infected with the shRNA following the manufacturer's instructions. HDF were cultured with an without puromycin selection and hES culture conditions (mTeSR Medium, Stem Cell Technology, Vancouver, BC, Canada) on matrigel (BD Biosciences, San Jose Calif.).
Immunohistochemistry. For immunohistochemistry, target shRNA-infected and control cells were grown on chambered slides (LabTek, Napersville, Ill.). Cells were then be fixed with 4% paraformaldehyde, and incubated with a specific antibody directed against pluripotency marker Oct3/4 (Abeam, Cambridge, Mass.) following the manufacturer's protocol. Staining of Oct3/4 was visualized as a red color. […]

[6] = test system: Oct-4, Nanog, Sox-2 mRNA, human dermal fibroblasts (HDFa, HDFn, HDFf); assay: HDAC7 or HDAC11 shRNA lentiviral infection, RT-PCR of Oct-4, Nanog, Sox-2 mRNA; type: cell-based
Excerpt: (§4) Human dermal fibroblasts (HDFa, HDFn, and HDFf) were infected with shRNA lentivirus to interfere with HDAC7. In a separate set of experiments, human dermal fibroblasts (HDFa, HDFn, and HDFf) were infected with shRNA lentivirus to interfere with HDAC11. RNA was isolated from HDFs (including puromycin selection) and applied to RT-PCR to analyze expression of target genes, e.g., Oct-4, Nanog, Sox2, various HDACs and various SIRT genes. The shRNA construct included puromycin (antibiotic) resistance as a way to select cells that have been successfully transfected with the shRNA. After transfection, puromycin was added to the culture and cells that were not resistant (therefore not transfected) died, thereby leaving only transfected cells remaining in the culture.
as §1
(§5) Lentiviral Infection. Human dermal fibroblasts were infected with a shRNA construct. The shRNA construct was obtained from Dharmacon. The shRNA construct directed toward directed toward HDAC7a had the following sequence:
as §3, with “Calif.). In these sets of experiments, cells were infected with a shRNA construct directed toward either HDAC7, or HDAC11.” for “Calif.).”
as §2, with “Oct-3/4 and Nanog” for “Oct-4”, “DNase” for “DNase I”, “Oct-3/4 and Nanog” for “Cot-4”

[7] = test system: HDAC genes and SIRT genes mRNA, human dermal fibroblasts; assay: HDAC7 shRNA lentiviral infection, RT-PCR of HDAC and SIRT genes (FIG. 7); type: cell-based
Excerpt: as §4, §1, §5
The human dermal fibroblasts were infected with the shRNA following the manufacturer's instructions. […]
Quantitative RT-PCR. Expression of Oct-3/4 and Nanog was determined by real-time RT-PCR. […]

[8] = test system: HDAC7a and HDAC11 expression, human dermal fibroblasts (HDFa, HDFn, HDFf); assay: HDAC7a shRNA effect on expression of HDAC7a and HDAC11, RT-PCR; type: cell-based
Protocol: as §1
Lentiviral Infection. Human dermal fibroblasts were infected with a shRNA construct. The shRNA construct was obtained from Dharmacon. The shRNA construct directed toward HDAC7a had the following sequence:
as §3
as §2, with “HDAC7a and HDAC11” for “Oct-4”, “The expression level of Cot-4 was normalized to glyceraldehyde 3-phosphate-dehydrogenase (GAPD).” left out

NC1CC1c1ccccc1 (centres unmarked) [2-PCPA]
Oct4 FC ([1]; dose 1 mM, Rx Time 8): <2

O=C(O)CCCCC1CCSS1 (stereo not drawn) [ALA, Alpha-lipoic acid]
Oct4 FC ([2]; dose 50 uM, Rx Time 4): 3.5

O=C(O)CCCC[C@@H]1SC[C@@H]2NC(=O)N[C@@H]21 [Biotin]
Oct4 FC ([2]; dose 500 uM, Rx Time 4): <2

Nc1ccccc1NC(=O)CCCCCCC(=O)Nc1ccccc1 [CAY 10433]
Oct4 FC ([2]; dose 50 uM, Rx Time 4): <2

O=C(O[C@@H]1Cc2c(O)cc(O)cc2O[C@@H]1c1cc(O)c(O)c(O)c1)c1cc(O)c(O)c(O)c1 [EGCG]
Oct4 FC ([1]; dose 1 uM, Rx Time 4): <2

NC(=O)C1CCCc2c1[nH]c1ccc(Cl)cc21 (centres unmarked) [EX-527]
Oct4 FC ([2]; dose 50 uM, Rx Time 4): 2

NNc1nncc2ccccc12 [Hydralazine HCL]
Oct4 FC ([2]; dose 500 uM, Rx Time 2): <2

O=C(c1ccc(Cl)cc1Cl)n1nnc2ccccc21 [ITSA]
Oct4 FC ([2]; dose .05 mM, Rx Time 4): <2

NC(=O)c1cccnc1 [Nicotinamide]
Oct4 FC ([2]; dose .028 mM, Rx Time 4): 2.3

CCN(CC)CCOC(=O)c1ccc(N)cc1 [Procaine HCL]
Oct4 FC ([2]; dose 500 uM, Rx Time 8): <2

O=C(NCCSSCCNC(=O)/C(Cc1ccc(O)c(Br)c1)=N/O)/C(Cc1ccc(O)c(Br)c1)=N/O [Psammaplin-A]
Oct4 FC ([1]; dose 1.5 mM, Rx Time 7): 2.2

O=C(O)C(Cc1c[nH]c2ccccc12)N1C(=O)c2ccccc2C1=O (centres unmarked) [RG108]
Oct4 FC [3]: <2

Cn1cc(C2=C(c3cn(CCCSC(=N)N)c4ccccc34)C(=O)NC2=O)c2ccccc21 [RO-31-8220]
Oct4 FC ([1]; dose 2.5 mM, Rx Time 4): <2

Oc1ccc(C=Cc2cc(O)cc(O)c2)cc1 [Resveratrol]
Oct4 FC ([1]; dose .5 mM, Rx Time 4): <2

COCCCn1c(N)c(C(=O)NC2CCCC2)c2nc3ccccc3nc21 [SIRT1 Activator 3]
Oct4 FC ([2]; dose 500 uM, Rx Time 4): 2

CC(NC(=O)c1ccccc1/N=C/c1c(O)ccc2ccccc12)c1ccccc1 (centres unmarked) [Sirtinol]
Oct4 FC ([1]; dose .05 mM, Rx Time 7): <2

O=C1CCc2c(ccc3ccccc23)O1 [Splitomycin]
Oct4 FC ([2]; dose .5 mM, Rx Time 4): 2

N[C@@H]1C[C@H]1c1ccccc1 [Tranylcypromine]
Oct4 FC ([2]; dose 2.5 mM, Rx Time 4): 2.7

O=c1ncccn1[C@@H]1O[C@H](CO)[C@@H](O)[C@H]1O [Zebularine]
Oct4 FC ([1]; dose .05 mM, Rx Time 6): <2

DNMT1 shRNA: shRNA construct directed toward DNMT1, SEQ ID NO. 4: GTCTACCAGATCTTCGATA (listed as Homo Sapiens)
Sox-2 protein expression [4]: only a modest amount | Oct-4 protein expression [5]: clearly increased

Depudecin
Oct4 FC ([2]; dose 50 uM, Rx Time 4): <2

HDAC7 shRNA: shRNA lentiviral construct from Dharmacon directed toward HDAC7a, SEQ ID NO. 1: GCTTTCAGGATAGTCGTGA (shRNA lentiviral construct)
level of mRNA for the gene Oct-4 ([6]; HDFa and HDFn, presence and absence of puromycin, compared to Nanog): more modest increase | expression of Nanog increased over time ([6]; HDFa and HDFn, with and without puromycin selection): at least six-fold | level of mRNA for the gene Nanog ([6]; HDFa, HDFn and HDFf, presence and absence of puromycin): increased | level of mRNA for the gene Nanog ([6]; HDFf, compared with HDFa and HDFn): not as robustly | level of mRNA for the Sox-2 gene ([6]; fetal human dermal fibroblasts (HDFf)): No induction | level of HDAC7 mRNA reduced ([7]; around three days after lentiviral infection): about 50 % of basal level | expression of HDAC 9, HDAC5 and HDAC11 mRNA ([7]; three days after HDAC7 shRNA infection): inducted | expression of HDAC7a [8]: decreased | expression of HDAC11 ([8]; presence and absence of puromycin): increased | Sox-2 protein expression [4]: minimal protein expression | Oct-4 protein expression [5]: minimal detection

Na Phenylbutyrate
Oct4 FC ([2]; dose 2.5 mM, Rx Time 4): 2.5

Valproxam
Oct4 FC ([2]; dose .5 mM, Rx Time 4): <2
